Measurements as given in publication PMC3844920 (British Journal of Cancer, 2013).

Key:
Pyk2 = Pyk2 (Homo sapiens, UniProt Q14289); assay: in vitro kinase assay; type: biochemical; details: read-out: Pyk2 inhibition 1 μM ^a
[1] = target: FAK (focal adhesion kinase) (Homo sapiens, UniProt Q05397); assay: in vitro kinase assay, Kinase-Glo luminescence; type: biochemical; details: read-out: FAK inhibition 1 μM ^a
Sequence of FAK (focal adhesion kinase) (Q05397 2-1052): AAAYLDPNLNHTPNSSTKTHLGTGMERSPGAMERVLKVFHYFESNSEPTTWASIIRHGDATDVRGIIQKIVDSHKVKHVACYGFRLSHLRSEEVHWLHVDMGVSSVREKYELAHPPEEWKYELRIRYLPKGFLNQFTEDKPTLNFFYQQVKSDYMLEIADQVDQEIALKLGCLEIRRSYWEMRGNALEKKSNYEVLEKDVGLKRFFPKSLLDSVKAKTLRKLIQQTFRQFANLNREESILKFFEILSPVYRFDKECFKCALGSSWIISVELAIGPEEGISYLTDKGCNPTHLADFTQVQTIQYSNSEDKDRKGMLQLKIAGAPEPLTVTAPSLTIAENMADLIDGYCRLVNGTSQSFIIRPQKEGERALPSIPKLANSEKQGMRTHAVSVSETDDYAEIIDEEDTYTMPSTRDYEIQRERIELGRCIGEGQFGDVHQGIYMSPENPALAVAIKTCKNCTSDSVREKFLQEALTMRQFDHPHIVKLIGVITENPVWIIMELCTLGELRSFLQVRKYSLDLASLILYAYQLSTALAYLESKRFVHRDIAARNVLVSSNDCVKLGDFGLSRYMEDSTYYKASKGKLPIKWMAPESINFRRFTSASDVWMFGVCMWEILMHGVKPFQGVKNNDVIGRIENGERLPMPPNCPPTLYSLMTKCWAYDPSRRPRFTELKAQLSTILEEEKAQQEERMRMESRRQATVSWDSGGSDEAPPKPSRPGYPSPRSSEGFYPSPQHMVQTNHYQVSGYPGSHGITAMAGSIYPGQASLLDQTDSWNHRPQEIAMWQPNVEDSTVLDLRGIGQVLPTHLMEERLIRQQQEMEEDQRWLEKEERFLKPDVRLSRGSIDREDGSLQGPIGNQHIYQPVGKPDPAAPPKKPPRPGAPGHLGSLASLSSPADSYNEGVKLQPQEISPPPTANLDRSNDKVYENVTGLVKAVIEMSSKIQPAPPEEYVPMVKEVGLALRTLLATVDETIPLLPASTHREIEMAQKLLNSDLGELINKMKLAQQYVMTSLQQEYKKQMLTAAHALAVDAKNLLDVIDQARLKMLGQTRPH

Sequence of Pyk2 (Q14289 whole entry): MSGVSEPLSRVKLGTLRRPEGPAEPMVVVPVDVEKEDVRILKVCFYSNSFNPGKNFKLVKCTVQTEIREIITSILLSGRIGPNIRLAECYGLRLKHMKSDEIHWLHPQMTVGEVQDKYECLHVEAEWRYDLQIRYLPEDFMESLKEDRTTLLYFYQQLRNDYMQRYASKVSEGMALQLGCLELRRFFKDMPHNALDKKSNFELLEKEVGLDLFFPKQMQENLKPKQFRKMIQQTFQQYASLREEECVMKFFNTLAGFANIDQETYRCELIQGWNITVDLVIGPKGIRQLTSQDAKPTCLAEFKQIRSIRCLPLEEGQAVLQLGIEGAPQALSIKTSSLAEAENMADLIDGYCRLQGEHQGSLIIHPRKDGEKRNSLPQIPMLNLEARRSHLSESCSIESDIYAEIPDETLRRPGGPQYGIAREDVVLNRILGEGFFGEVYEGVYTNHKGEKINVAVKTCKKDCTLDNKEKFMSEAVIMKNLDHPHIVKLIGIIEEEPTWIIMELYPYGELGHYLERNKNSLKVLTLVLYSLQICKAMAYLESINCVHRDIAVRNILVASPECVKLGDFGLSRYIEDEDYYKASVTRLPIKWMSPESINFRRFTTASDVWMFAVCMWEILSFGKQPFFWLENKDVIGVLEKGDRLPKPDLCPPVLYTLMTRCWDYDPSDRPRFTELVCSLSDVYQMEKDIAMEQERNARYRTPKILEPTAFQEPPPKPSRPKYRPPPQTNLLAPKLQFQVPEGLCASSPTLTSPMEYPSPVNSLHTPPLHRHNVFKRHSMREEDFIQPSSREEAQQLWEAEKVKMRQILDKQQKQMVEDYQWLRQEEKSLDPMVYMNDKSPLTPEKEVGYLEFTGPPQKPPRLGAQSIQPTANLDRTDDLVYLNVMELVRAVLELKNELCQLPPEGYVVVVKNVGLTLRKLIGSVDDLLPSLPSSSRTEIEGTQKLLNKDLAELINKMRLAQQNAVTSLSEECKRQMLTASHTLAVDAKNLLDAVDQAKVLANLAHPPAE

c1nc2nc(Nc3ccc(N4CCOCC4)cc3)nc(NC3CCCCC3)c2[nH]1 [reversine]
inhibition at 1 µM (Pyk2): 82% | inhibition at 1 µM [1]: 70%
